# According to ChEMBL document CHEMBL4507270 (2021):
# What was measured:
# Ephrin type-B receptor 6 = molecular target: T1, Ephrin type-B receptor 6 (Homo sapiens, UniProt O15197); experiment: NanoBRET assay (SGC Frankfurt) with EPHB6
# T1 sequence (O15197 whole entry): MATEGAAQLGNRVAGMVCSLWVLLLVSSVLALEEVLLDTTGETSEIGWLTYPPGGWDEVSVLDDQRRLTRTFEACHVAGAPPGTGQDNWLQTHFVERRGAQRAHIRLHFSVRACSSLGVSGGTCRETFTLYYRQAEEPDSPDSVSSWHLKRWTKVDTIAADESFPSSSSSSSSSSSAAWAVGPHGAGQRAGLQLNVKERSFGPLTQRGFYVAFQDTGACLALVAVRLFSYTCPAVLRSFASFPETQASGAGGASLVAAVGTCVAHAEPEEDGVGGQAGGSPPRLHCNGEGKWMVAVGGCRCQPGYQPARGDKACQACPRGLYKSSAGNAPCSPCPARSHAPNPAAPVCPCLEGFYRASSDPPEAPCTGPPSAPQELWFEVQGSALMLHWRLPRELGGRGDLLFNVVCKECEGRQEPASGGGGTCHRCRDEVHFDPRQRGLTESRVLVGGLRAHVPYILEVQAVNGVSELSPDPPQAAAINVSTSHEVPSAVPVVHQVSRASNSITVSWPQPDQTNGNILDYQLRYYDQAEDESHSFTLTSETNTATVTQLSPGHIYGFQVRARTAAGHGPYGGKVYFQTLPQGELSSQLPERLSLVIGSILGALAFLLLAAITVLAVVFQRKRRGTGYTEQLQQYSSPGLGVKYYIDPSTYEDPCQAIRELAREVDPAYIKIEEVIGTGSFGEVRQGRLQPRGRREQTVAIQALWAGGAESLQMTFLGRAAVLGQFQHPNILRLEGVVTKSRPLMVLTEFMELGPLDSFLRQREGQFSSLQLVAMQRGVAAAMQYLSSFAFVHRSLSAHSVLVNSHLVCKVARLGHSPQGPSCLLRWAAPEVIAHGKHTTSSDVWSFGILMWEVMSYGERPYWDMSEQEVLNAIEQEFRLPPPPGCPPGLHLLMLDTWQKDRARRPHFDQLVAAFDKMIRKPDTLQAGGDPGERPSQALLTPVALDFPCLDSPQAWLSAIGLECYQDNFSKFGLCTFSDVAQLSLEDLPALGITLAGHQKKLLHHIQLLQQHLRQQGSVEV
# [1] = molecular target: Serine/threonine-protein kinase haspin (Homo sapiens) (UniProt Q8TF76)
# [2] = molecular target: Mitogen-activated protein kinase 8 (Homo sapiens) (UniProt P45983)
# [3] = molecular target: 5-hydroxytryptamine receptor 2A (Homo sapiens) (UniProt P28223); details: Compound concentration 10.0 uM
# [4] = tested on: Leucine-rich repeat serine/threonine-protein kinase 2 (Homo sapiens), Q5S007 [G2019S]
# [5] = molecular target: Homeodomain-interacting protein kinase 1 (Homo sapiens) (UniProt Q86Z02)
# [6] = molecular target: Dual specificity protein kinase CLK1 (Homo sapiens) (UniProt P49759)
# [7] = molecular target: Tyrosine-protein kinase Mer (Homo sapiens) (UniProt Q12866)
# [8] = molecular target: Casein kinase I isoform alpha-like (Homo sapiens) (UniProt Q8N752)
# [9] = molecular target: Serine/threonine-protein kinase 38-like (Homo sapiens) (UniProt Q9Y2H1)
# [10] = molecular target: Muscarinic acetylcholine receptor M2 (Homo sapiens) (UniProt P08172); details: Compound concentration 10.0 uM
# D(2) dopamine receptor = D(2) dopamine receptor (Homo sapiens, UniProt P14416); details: Compound concentration 10.0 uM
# [11] = molecular target: Serine/threonine-protein kinase 16 (Homo sapiens) (UniProt O75716)
# [12] = molecular target: Serine/threonine-protein kinase 10 (Homo sapiens, UniProt O94804)
# [13] = molecular target: Proto-oncogene tyrosine-protein kinase Src (Homo sapiens) (UniProt P12931)
# [14] = tested on: Epidermal growth factor receptor (Homo sapiens), P00533 [T790M]
# [15] = tested on: Mast/stem cell growth factor receptor Kit (Homo sapiens), P10721 [V559D,T670I]
# [16] = molecular target: Serine/threonine-protein kinase 36 (Homo sapiens) (UniProt Q9NRP7)
# [17] = molecular target: Ephrin type-B receptor 3 (Homo sapiens) (UniProt P54753)
# [18] = molecular target: Serine/threonine-protein kinase N1 (Homo sapiens) (UniProt Q16512)
# [19] = tested on: Receptor-type tyrosine-protein kinase FLT3 (Homo sapiens), P36888 [UNDEFINED MUTATION]
# [20] = molecular target: MAP kinase-activated protein kinase 5 (Homo sapiens) (UniProt Q8IW41)
# [21] = tested on: Tyrosine-protein kinase ABL1 (Homo sapiens), P00519 [H396P]
# [22] = molecular target: Serine/threonine-protein kinase tousled-like 2 (Homo sapiens) (UniProt Q86UE8)
# [23] = molecular target: Cyclin-dependent kinase 2 homolog (Plasmodium falciparum (isolate 3D7)) (UniProt P61075)
# [24] = molecular target: Tyrosine-protein kinase BTK (Homo sapiens) (UniProt Q06187)
# [25] = molecular target: Mitogen-activated protein kinase 6 (Homo sapiens) (UniProt Q16659)
# [26] = molecular target: Serine/threonine-protein kinase 25 (Homo sapiens) (UniProt O00506)
# [27] = molecular target: Serine/threonine-protein kinase Nek9 (Homo sapiens) (UniProt Q8TD19)
# [28] = tested on: Mast/stem cell growth factor receptor Kit (Homo sapiens), P10721 [L576P]
# [29] = tested on: Epidermal growth factor receptor (Homo sapiens), P00533 [L858R]
# [30] = Compound concentration 1000.0 nM
# [31] = Compound concentration 100.0 nM
# 5-hydroxytryptamine receptor 2A (Homo sapiens), sequence (P28223 whole entry): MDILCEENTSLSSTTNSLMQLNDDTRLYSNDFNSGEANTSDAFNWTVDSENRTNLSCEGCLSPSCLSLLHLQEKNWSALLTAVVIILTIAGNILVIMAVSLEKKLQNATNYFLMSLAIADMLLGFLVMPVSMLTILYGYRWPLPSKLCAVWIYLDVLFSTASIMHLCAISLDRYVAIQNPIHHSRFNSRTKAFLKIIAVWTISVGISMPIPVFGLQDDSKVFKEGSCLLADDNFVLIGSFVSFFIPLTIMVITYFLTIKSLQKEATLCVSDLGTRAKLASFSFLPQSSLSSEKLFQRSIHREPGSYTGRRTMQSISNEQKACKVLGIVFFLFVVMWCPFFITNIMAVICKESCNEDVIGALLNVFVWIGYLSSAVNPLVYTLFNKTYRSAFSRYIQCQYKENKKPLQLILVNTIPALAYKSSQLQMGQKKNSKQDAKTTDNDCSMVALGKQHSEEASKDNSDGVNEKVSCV
# Serine/threonine-protein kinase haspin (Homo sapiens), sequence (Q8TF76 whole entry): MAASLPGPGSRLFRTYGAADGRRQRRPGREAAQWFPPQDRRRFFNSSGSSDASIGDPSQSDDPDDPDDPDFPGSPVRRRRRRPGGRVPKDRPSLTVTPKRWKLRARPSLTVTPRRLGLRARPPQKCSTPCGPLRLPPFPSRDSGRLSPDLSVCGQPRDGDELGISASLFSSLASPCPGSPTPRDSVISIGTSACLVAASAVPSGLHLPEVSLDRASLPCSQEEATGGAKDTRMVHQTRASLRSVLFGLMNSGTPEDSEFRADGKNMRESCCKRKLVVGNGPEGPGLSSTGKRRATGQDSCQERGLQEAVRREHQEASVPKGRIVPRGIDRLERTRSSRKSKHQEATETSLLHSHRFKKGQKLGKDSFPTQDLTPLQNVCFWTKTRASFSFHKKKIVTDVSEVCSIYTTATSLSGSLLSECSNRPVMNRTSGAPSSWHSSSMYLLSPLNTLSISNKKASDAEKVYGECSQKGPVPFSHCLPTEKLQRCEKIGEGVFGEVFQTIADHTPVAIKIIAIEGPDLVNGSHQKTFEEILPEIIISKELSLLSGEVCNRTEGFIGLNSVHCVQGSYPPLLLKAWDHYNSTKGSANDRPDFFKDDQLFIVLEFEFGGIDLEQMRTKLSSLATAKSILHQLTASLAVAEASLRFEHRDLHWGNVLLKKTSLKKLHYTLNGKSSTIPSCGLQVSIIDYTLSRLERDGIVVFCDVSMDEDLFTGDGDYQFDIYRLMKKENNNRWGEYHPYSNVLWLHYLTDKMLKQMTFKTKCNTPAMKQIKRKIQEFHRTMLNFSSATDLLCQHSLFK
# Proto-oncogene tyrosine-protein kinase Src (Homo sapiens), sequence (P12931 2-536 limits assumed): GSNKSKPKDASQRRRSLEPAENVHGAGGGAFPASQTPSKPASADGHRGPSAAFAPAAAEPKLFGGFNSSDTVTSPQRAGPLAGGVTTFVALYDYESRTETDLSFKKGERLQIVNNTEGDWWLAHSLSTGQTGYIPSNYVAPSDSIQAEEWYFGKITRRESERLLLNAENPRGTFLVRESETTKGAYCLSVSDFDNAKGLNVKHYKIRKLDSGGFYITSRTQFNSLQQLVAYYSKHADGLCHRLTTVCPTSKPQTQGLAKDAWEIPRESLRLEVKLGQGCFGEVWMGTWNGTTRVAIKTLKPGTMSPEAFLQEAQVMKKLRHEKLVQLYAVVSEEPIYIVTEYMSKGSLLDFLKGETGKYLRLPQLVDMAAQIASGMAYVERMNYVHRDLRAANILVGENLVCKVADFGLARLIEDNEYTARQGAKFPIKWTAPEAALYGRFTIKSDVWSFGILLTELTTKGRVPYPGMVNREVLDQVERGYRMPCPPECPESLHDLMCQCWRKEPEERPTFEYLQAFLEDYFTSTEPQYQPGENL
# Receptor-type tyrosine-protein kinase FLT3 (Homo sapiens), P36888 [UNDEFINED MUTATION], sequence (P36888 whole entry, looked up, change not shown): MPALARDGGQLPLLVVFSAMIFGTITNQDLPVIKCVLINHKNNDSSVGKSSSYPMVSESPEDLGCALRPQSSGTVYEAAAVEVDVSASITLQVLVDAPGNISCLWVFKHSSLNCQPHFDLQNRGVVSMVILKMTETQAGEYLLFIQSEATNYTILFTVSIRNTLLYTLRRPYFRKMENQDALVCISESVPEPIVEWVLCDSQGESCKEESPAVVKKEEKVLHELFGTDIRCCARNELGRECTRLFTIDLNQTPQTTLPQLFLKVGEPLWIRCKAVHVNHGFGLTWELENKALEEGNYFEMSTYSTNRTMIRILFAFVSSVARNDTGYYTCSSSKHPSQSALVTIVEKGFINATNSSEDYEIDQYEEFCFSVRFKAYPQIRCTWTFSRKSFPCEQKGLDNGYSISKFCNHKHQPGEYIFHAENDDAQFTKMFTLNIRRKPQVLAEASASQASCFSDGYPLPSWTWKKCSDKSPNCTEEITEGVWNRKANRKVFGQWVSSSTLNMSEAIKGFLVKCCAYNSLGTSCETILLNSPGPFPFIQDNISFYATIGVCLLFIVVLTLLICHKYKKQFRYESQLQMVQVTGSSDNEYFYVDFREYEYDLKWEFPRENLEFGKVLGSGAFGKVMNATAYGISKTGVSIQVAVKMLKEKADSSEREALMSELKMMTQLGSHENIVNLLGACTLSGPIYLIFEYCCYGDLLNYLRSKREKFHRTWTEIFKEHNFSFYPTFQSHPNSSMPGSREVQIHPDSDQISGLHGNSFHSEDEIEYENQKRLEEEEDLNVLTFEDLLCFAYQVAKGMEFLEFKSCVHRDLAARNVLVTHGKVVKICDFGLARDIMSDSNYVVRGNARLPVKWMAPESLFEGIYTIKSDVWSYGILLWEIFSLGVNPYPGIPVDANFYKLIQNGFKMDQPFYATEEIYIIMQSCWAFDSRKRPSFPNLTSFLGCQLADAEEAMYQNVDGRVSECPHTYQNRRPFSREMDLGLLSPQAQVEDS
# Serine/threonine-protein kinase N1 (Homo sapiens), sequence (Q16512 2-942 limits assumed): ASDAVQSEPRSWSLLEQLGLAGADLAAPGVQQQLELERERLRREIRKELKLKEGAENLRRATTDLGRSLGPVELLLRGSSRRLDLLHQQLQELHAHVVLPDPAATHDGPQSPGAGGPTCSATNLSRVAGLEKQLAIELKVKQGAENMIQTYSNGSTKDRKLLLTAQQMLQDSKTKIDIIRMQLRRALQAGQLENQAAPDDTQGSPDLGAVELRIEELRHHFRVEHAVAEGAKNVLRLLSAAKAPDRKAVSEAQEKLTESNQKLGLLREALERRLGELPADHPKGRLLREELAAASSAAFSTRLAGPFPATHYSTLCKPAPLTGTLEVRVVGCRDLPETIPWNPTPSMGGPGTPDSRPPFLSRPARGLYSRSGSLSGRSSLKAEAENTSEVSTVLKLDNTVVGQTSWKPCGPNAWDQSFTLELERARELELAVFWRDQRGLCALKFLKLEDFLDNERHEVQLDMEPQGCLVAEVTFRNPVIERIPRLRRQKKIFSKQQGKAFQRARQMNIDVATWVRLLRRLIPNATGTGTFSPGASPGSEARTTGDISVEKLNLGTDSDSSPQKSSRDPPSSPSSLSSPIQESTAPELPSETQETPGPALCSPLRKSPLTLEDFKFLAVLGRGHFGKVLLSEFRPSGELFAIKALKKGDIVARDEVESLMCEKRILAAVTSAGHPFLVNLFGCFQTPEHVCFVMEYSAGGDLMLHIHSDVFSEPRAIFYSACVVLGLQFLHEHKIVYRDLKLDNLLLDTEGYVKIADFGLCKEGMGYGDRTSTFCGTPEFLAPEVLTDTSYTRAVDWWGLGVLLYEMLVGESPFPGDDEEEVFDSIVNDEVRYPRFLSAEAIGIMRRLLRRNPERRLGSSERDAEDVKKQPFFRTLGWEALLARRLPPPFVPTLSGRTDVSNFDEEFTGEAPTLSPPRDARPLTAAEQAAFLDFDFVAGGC
# Tyrosine-protein kinase BTK (Homo sapiens), sequence (Q06187 whole entry): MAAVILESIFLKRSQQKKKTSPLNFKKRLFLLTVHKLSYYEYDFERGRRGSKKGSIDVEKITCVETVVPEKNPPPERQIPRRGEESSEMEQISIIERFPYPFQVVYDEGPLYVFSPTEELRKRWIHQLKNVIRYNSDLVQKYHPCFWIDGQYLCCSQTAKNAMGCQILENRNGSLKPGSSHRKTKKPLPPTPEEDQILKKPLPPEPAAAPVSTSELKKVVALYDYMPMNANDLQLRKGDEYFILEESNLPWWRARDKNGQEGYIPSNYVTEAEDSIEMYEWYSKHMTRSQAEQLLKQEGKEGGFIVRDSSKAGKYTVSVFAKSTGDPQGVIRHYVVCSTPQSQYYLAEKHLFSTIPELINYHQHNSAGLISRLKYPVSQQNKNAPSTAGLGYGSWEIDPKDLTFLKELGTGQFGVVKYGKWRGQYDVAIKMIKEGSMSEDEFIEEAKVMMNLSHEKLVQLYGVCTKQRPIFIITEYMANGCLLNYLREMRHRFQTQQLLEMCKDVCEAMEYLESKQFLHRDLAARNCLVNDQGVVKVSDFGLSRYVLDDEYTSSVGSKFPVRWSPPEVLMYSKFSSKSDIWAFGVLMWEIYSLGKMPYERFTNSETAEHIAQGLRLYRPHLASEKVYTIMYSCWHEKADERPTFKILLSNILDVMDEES
# Muscarinic acetylcholine receptor M2 (Homo sapiens), sequence (P08172 whole entry): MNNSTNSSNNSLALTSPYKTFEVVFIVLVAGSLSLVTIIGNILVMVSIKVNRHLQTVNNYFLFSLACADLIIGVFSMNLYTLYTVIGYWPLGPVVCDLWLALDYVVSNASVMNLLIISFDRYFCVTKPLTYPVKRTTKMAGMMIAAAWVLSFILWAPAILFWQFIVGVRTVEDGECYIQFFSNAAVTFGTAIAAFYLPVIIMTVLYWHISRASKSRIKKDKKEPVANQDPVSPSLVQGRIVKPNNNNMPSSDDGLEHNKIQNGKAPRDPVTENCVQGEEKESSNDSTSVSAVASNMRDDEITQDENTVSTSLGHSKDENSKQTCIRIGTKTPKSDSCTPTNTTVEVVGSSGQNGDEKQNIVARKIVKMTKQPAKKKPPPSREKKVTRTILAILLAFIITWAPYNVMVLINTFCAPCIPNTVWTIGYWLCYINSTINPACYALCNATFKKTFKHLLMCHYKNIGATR
smiles,measurement,setting,value
Cc1cc(NC(=O)c2cccc(S(F)(F)(F)(F)F)c2)cc(-n2ccn3nc(-c4cccnc4)cc23)c1 [BAY-309],EC50,Ephrin type-B receptor 6,27 µM (not active)
same,IC50,Ephrin type-B receptor 6,11 µM (not active)
same,residual activity,[1]; [30],70.9%
same,residual activity,[2]; [30],55.9%
same,inhibition,[3],21.9%
same,residual activity,[4]; [30],81.3%
same,residual activity,[5]; [30],49.1%
same,residual activity,[6]; [30],100%
same,residual activity,[7]; [30],100%
same,residual activity,[8]; [30],100%
same,residual activity,[9]; [30],100%
same,inhibition,[10],32.7%
same,inhibition,D(2) dopamine receptor,62.1%
same,residual activity,[11]; [30],53.9%
same,residual activity,[12]; [30],26.8%
same,residual activity,[13]; [30],100%
same,residual activity,[14]; [30],100%
same,residual activity,[15]; [30],91.3%
same,residual activity,[16]; [30],93.1%
same,residual activity,[17]; [30],100%
same,residual activity,[18]; [30],100%
same,residual activity,[19]; [30],66.1%
same,residual activity,[20]; [30],100%
same,residual activity,[21]; [30],66.9%
same,residual activity,[22]; [30],94.3%
same,residual activity,[23]; [30],71.8%
same,residual activity,[24]; [30],83.8%
same,residual activity,[25]; [30],100%
same,residual activity,[26]; [30],59.5%
same,residual activity,[27]; [30],100%
same,residual activity,[28]; [30],100%
same,residual activity,[29]; [30],100%
Cc1cc(C)c(-n2ccn3nc(-c4cccnc4)cc23)cc1NC(=O)c1cc(C#N)cc(S(F)(F)(F)(F)F)c1 [BAY-826],EC50,Ephrin type-B receptor 6,12 µM (not active)
same,IC50,Ephrin type-B receptor 6,3.9 µM (not active)
same,residual activity,[1]; [31],64%
same,residual activity,[2]; [31],76.8%
same,inhibition,[3],-4.7%
same,residual activity,[4]; [31],73.9%
same,residual activity,[5]; [31],61.6%
same,residual activity,[6]; [31],96.2%
same,residual activity,[7]; [31],83.6%
same,residual activity,[8]; [31],88.4%
same,residual activity,[9]; [31],98.9%
same,inhibition,[10],10.5%
same,inhibition,D(2) dopamine receptor,8.74%
same,residual activity,[11]; [31],64.3%
same,residual activity,[12]; [31],1.8%
same,residual activity,[13]; [31],92.6%
same,residual activity,[14]; [31],61.6%
same,residual activity,[15]; [31],67.9%
same,residual activity,[16]; [31],80.8%
same,residual activity,[17]; [31],100%
same,residual activity,[18]; [31],96.7%
same,residual activity,[19]; [31],87.7%
same,residual activity,[20]; [31],91.7%
same,residual activity,[21]; [31],69%
same,residual activity,[22]; [31],100%
same,residual activity,[23]; [31],90.9%
same,residual activity,[24]; [31],100%
same,residual activity,[25]; [31],85.8%
same,residual activity,[26]; [31],79.1%
same,residual activity,[27]; [31],72.2%
same,residual activity,[28]; [31],40.7%
same,residual activity,[29]; [31],83.9%
